Reference: patent publication US8367695B2, “Condensed tetrahydroquinoline derivative and use thereof for medical purposes” (Mitsubishi Tanabe Pharma Corporation, priority 2007, dated 2013)

Biological target: T1, Glucocorticoid Receptor (GR), CHO-GRE-Luc #35 cells (Cricetulus griseus, UniProt A0A9J7F8I2)
T1 sequence (A0A9J7F8I2 1-774): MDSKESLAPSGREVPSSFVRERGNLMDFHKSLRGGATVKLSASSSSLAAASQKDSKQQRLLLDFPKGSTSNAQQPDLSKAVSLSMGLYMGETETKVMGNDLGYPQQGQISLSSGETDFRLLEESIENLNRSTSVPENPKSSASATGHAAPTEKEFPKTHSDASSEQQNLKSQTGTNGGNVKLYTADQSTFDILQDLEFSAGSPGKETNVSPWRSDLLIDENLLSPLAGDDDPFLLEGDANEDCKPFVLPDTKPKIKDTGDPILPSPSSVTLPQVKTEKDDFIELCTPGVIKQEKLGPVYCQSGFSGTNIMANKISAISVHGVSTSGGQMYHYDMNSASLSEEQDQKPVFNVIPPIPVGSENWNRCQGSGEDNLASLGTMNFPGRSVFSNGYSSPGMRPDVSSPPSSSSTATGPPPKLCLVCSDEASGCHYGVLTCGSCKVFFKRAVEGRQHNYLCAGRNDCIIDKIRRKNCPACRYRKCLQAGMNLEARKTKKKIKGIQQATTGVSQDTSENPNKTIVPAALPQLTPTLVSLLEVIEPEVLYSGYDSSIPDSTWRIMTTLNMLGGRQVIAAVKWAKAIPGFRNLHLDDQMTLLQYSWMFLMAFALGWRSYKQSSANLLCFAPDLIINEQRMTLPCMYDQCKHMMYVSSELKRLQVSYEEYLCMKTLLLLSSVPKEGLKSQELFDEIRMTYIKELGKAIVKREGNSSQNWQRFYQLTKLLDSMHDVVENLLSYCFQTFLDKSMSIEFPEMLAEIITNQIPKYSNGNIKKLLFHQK
Experiment: Glucocorticoid receptor function test using transgenic-recombinant cell (GRE-luciferase)
Format: cell-based
Settings: against GR stimulation with 10 nM dexamethasone, luciferase, about 6 hr; read-out: GR (IC50: nM)
Description: Glucocorticoid Receptor Function Test Using Transgenic-Recombinant Cell
Transgenic-recombinant cell was prepared by our company (Yokohama, JP). In Hokkaido System Science Co., Ltd., a cis-element wherein two glucocorticoid responsive elements (GRE) present in the […] promoter region of mouse were connected in tandem was produced on order from synthetic DNA. The gene was incorporated into a plasmid vector having a gene encoding luciferase enzyme. The plasmid was incorporated into CHO-K1 cell to give a transfectant. The expression cell (CHO-GRE-Luc #35) produces luciferase instead of the object protein under regulation of a transcription region involved in the expression of the object protein. That is, using the cell, a substance that controls production of the object protein can be screened for by replacing the substance with the luciferase activity. Fetal Bovine Serum (FBS), L-glutamine, penicillin-streptomycin solution, PBS(−), trypsin-EDTA solution, Opti-MEM medium and G418 were obtained from GIBCO (Auckland, N.Z.). A 10 cm dish and DMEM:HAM′S F12 medium were obtained from IWAKI (Chiba, JP). A 96 well white plate was obtained from Corning (Corning, N.Y.). Bright-Glo was obtained from Promega (Madison, US). Dexamethasone was obtained from Sigma Chemicals (St. Louis, Mo.).
CHO-GRE-Luc #35 cells were cultured for several days in a 10 cm dish in a medium (10% FBS/DMEM:HAM'S F12/2.5 mM L-glutamine/50 U/mL penicillin/25 μg/mL streptomycin/500 μg/mL G418). Sub-confluent cells were washed with a suitable amount of PBS(−), 1 ml of Trypsin-EDTA was added and the cells were stood still in a CO2 incubator at 37° C. for 3 min. A 10-fold amount of Opti-MEM medium was added to give a suspension, which was placed in a centrifugal tube and centrifuged (25° C., 1,000 rpm, 5 min). The supernatant was removed, and the cells were suspended in 5 ml of Opti-MEM medium and counted.
Storage solutions (5-20 mM) of the compound were prepared with DMSO. The storage solutions were diluted with DMSO to 1 mM, and further diluted 100-fold with distilled water or Opti-MEM medium to give solutions. The preparations were diluted with 1% DMSO solution to each concentration. As GR agonist, 10 nM dexamethasone was used. 0.2% DMSO was present at the time of the function assay.
The prepared compound solutions (evaluation compound solution or 1% DMSO solution 10 μL+dexamethasone or 1% DMSO solution 10 μL) were added to the plate. After the addition, the place was stood still in a CO2 incubator at 37° C. for about 6 hr. After the reaction, Bright-Glo was added at 20 μL/well, and the mixture was gently shaken and measured by a microplate luminometer (Turner Designs Instrument).
The IC50 value (nM) of the evaluation compound against GR stimulation with dexamethasone was calculated using Prism 3.0 as an analysis software and assuming one-site competition.

Structure (SMILES) | IC50 [nM]
CC1(C)Nc2c(cc(-c3ccnc4ncccc34)c3occc23)C(C)(C)C1=O [Example 102, 2,2,4,4-tetramethyl-6-([1,8]naphthyridin-4-yl)-1,2,3,4-tetrahydro-furo[2,3-h]quinolin-3-one] | 35
Cc1noc(C)c1-c1cc2c(c3c1C(=O)CC3)NC(C)(C)C(=O)C2(C)C [Example 104, 6-(3,5-dimethylisoxazol-4-yl)-2,2,4,4-tetramethyl-2,3,4,7,8,9-hexahydro-1H-cyclopenta[h]quinoline-3,7-dione] | 128
